The subject of the series is Yap1 mRNA. Description: Antisense inhibition of human Yap1 in SNU-449 cells by modified oligonucleotides, single dose (Example 5, RTS36584). It counts as cell-based. Summed up:
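Free uptake, 2,000 nM, ~48 h, SNU-449 at 10,000 cells/well. Read-out: qRT-PCR (RTS36584), RIBOGREEN-normalised, expressed as % UTC. Asterisk = oligo hits amplicon region.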

Where [1] appears, read: Table 41, SNU-449 cells, 10,000 cells per well, free uptake, 2,000 nM modified oligonucleotide, approximately 48 hours, RTS36584, normalized to RIBOGREEN, Yap1 mRNA relative to untreated control cells.
Where [2] appears, read: Table 39, SNU-449 cells, 10,000 cells per well, free uptake, 2,000 nM oligonucleotide, approx. 48 hours, RTS36584, normalized to RIBOGREEN, Yap1 mRNA relative to untreated control.
Setting [3] is: Table 40 (separate experiment), SNU-449 cells, 10,000 cells per well, free uptake, 2,000 nM oligonucleotide, approx. 48 hours, RTS36584, normalized to RIBOGREEN, Yap1 mRNA relative to untreated control.
[4] abbreviates: Table 51, Yap1 mRNA remaining as percent of untreated control (UT), SNU-449 cells, single dose.
[5] abbreviates: Table 42 (separate experiment), SNU-449 cells, 10,000 cells per well, free uptake, 2,000 nM modified oligonucleotide, approximately 48 hours, RTS36584, normalized to RIBOGREEN, Yap1 mRNA relative to untreated control cells.
[6] abbreviates: Table 52, Yap1 mRNA, modified oligonucleotides targeting SEQ ID NO: 1 and 2.
Setting [7] is: Yap1 mRNA, percent of untreated control, modified oligonucleotides targeting SEQ ID NO: 1 and 2, Table 47.
[8] abbreviates: Table 49, Yap1 mRNA level relative to untreated control, modified oligonucleotides targeting SEQ ID NO.: 1 and 2.
Where [9] appears, read: Table 50, Yap1 mRNA remaining as percent of untreated control (UT), SNU-449 cells, single dose.
[10] abbreviates: Table 43 experiment, SNU-449 cells, 10,000 cells per well, free uptake, 2,000 nM, approximately 48 hours, RTS36584, Yap1 mRNA normalized to RIBOGREEN, relative to untreated control cells.
Setting [11] is: Table 44 experiment, SNU-449 cells, 10,000 cells per well, free uptake, 2,000 nM, approximately 48 hours, RTS36584, Yap1 mRNA normalized to RIBOGREEN, relative to untreated control cells.
Where [12] appears, read: Table 46, Yap1 mRNA as percent of untreated control, SNU-449 cells, single dose.

Strand notation (5' to 3'): a small letter for the sugar, then the base; units joined by * are phosphorothioate-linked, units joined directly phosphodiester-linked; [ ] holds rarer units or linkages, { } end groups; capitals alone tell only the bases. e = 2'-O-(2-methoxyethyl) (MOE); k = constrained ethyl (cEt); [5mC] = 5-methylcytosine; d = 2'-deoxy (DNA); m = 2'-O-methyl

For the substance “1198677 (antisense kA*kT*dT*d[5mC]*dA*dG*dA*dT*dT*dT*dA*dG*kG*eA*kT*eG) [Compound 1198677]”, the “YAP1 (% UTC)” value under setting [1] stood at 87 % UTC.
Regarding “1198419 (kA*dT*dT*d[5mC]*dA*dG*dA*dT*dT*dT*dA*kG*eG*kA*eT*kG; antisense) [Compound 1198419]”, under setting [2], the “YAP1 (% UTC)” value turned out to be 78 % UTC.
As to “1198669 (antisense kA*kG*dG*dA*dT*dG*d[5mC]*dA*dT*dG*dG*dT*kT*eT*kT*eT) [Compound 1198669]”, the “YAP1 (% UTC)” value under setting [1] is 61 % UTC.
In the case of “1198742 (kT*eT*kT*dT*dA*d[5mC]*dA*dT*dT*dA*dG*dG*eA*eA*k[5mC]*kA; antisense) [Compound 1198742]”, the “YAP1 (% UTC)” value under setting [3] worked out at 143 % UTC.
Regarding “1197239 (antisense kT*kG*kA*dG*mG*dT*dA*dT*dA*dA*d[5mC]*dT*dG*kG*kG*k[5mC]) [Compound 1197239]”, under setting [4], the “YAP1 (% UT)” value is reported as 47 % UT.
As for “1198701 (kT*kT*dA*dA*dA*dG*dT*dG*dT*dA*dT*dG*kT*e[5mC]*kA*eG; antisense) [Compound 1198701]”, under setting [5], the “YAP1 (% UTC)” value turned out to be 46 % UTC.
Consider “1200842 (k[5mC]*kT*k[5mC]*dT*dT*mA*dT*dA*dT*dG*dG*dT*dT*kT*kT*kG; antisense) [Compound 1200842]”, for which the “YAP1 (% UT)” value under setting [6] came out at 168 % UT.
Consider “1198646 (kT*kA*dT*dA*dA*d[5mC]*dT*dG*dG*dG*d[5mC]*dA*kA*eA*kT*eT) [Compound 1198646]”, for which the “YAP1 (% UTC)” value under setting [5] turned out to be 80 % UTC.
In the case of “1198636 (kA*kT*dA*dT*dG*dG*dA*dA*dA*dT*dT*dG*kT*e[5mC]*kT*e[5mC]; antisense) [Compound 1198636]”, the “YAP1 (% UTC)” value under setting [1] was determined as 41 % UTC.
On to “1197211 (antisense kT*kA*kT*dG*dT*dA*dA*dT*dA*dT*dT*dG*d[5mC]*kA*kA*kT) [Compound 1197211]”, for which the “YAP1 (% UT)” value under setting [7] came to 80 % UT.
Regarding “1198544 (antisense kA*kA*kT*dT*dG*dT*d[5mC]*dT*d[5mC]*dA*dT*dG*k[5mC]*k[5mC]*kT*eT) [Compound 1198544]”, the “YAP1 (% UT)” value under setting [8] was 21 % UT.
For “1198590 (antisense kT*k[5mC]*kA*dG*dA*dT*dT*dT*dA*dG*dG*dA*kT*kG*k[5mC]*eA) [Compound 1198590]”, the “YAP1 (% UT)” value under setting [9] was determined as 46 % UT.
As for “1197228 (antisense kA*kA*kT*dT*mG*dT*d[5mC]*dT*d[5mC]*dA*dT*dG*d[5mC]*k[5mC]*kT*kT) [Compound 1197228]”, the “YAP1 (% UT)” value under setting [9] stood at 25 % UT.
For “1198252 (k[5mC]*kT*d[5mC]*dT*dT*dA*dT*dA*dT*dG*dG*eT*eT*eT*kT*kG; antisense) [Compound 1198252]”, the “YAP1 (% UTC)” value under setting [10] was found to be 26 % UTC.
On to “1198774 (kA*eA*k[5mC]*dT*d[5mC]*dT*dT*dA*dT*dA*dT*dG*eG*eT*kT*kT; antisense) [Compound 1198774]”, for which, under setting [1], the “YAP1 (% UTC)” value turned out to be 106 % UTC.
Take “1198518 (kT*kA*dA*dT*dA*dT*dT*dG*d[5mC]*dA*dA*eT*k[5mC]*eT*kG*eT; antisense) [Compound 1198518]”: under setting [11], the “YAP1 (% UTC)” value worked out at 71 % UTC.
In the case of “1198437 (kT*dT*dT*dA*dT*dG*dT*dA*dA*dT*dA*kT*eT*kG*e[5mC]*kA; antisense) [Compound 1198437]”, the “YAP1 (% UTC)” value under setting [2] was determined as 63 % UTC.
Turning to “1200833 (kG*kA*kT*dT*dT*mA*dG*dG*dA*dT*dG*d[5mC]*dA*kT*kG*kG; antisense) [Compound 1200833]”, the “YAP1 (% UT)” value under setting [6] stood at 31 % UT.
On to “1198469 (antisense kA*kT*dT*dA*dG*dA*dG*dT*dA*dT*dG*eT*kG*eG*k[5mC]*eA) [Compound 1198469]”, for which the “YAP1 (% UTC)” value under setting [10] is on record as 23 % UTC.
For the substance “1074799 (kT*kG*k[5mC]*dT*dT*dT*dG*dG*dA*dA*dG*dA*dT*k[5mC]*kT*kG) [Compound 1074799]”, the “YAP1 (% UT)” value under setting [7] is 21 % UT.
For the substance “1198520 (kT*kG*dT*dA*dA*dT*dA*dT*dT*dG*d[5mC]*eA*kA*eT*k[5mC]*eT; antisense) [Compound 1198520]”, under setting [11], the “YAP1 (% UTC)” value came out at 51 % UTC.
Take “1198827 (kT*kT*dA*d[5mC]*dA*dT*dT*dA*dG*dG*dA*kA*e[5mC]*kA*eA*kG; antisense) [Compound 1198827]”: under setting [12], the “YAP1 (% UT)” value is given as 60 % UT.
For the substance “1198864 (kA*kT*dA*dT*dT*dG*d[5mC]*dA*dA*dT*d[5mC]*kT*eG*kT*e[5mC]*kT; antisense) [Compound 1198864]”, the “YAP1 (% UT)” value under setting [12] was 56 % UT.
“1198538 (kA*k[5mC]*dT*dA*dA*dG*dT*dA*dA*dG*dG*eT*kT*eT*k[5mC]*e[5mC]; antisense) [Compound 1198538]”: the “YAP1 (% UTC)” value under setting [11] is 29 % UTC.
With “1198366 (kA*k[5mC]*kT*dA*dA*dG*dT*dA*dA*dG*dG*dT*kT*eT*k[5mC]*e[5mC]; antisense) [Compound 1198366]”, the “YAP1 (% UT)” value under setting [8] worked out at 45 % UT.
“1198466 (antisense kA*kG*dA*dG*dT*dA*dT*dG*dT*dG*dG*e[5mC]*kA*eA*kT*eA) [Compound 1198466]”: the “YAP1 (% UTC)” value under setting [10] was 12 % UTC.
With “1198308 (kT*kT*kT*dT*dA*d[5mC]*dA*dT*dT*dA*dG*dG*kA*eA*k[5mC]*eA; antisense) [Compound 1198308]”, the “YAP1 (% UT)” value (Table 48, Yap1 mRNA level relative to untreated control, modified oligonucleotides targeting SEQ ID NO.: 1 and 2) was found to be 68 % UT.
For the substance “1198899 (kA*kG*dT*dA*dT*dG*dT*dG*dG*d[5mC]*dA*kA*dT*kA*dA*kT) [Compound 1198899]”, the “YAP1 (% UTC)” value under setting [11] is recorded as 75 % UTC.
Take “1198605 (antisense kG*kT*kA*dA*dT*dA*dT*dT*dG*d[5mC]*dA*dA*kT*k[5mC]*kT*eG) [Compound 1198605]”: under setting [9], the “YAP1 (% UT)” value is on record as 7 % UT.
For the substance “1198232 (kT*kT*dT*dG*dG*dA*dA*dG*dA*dT*d[5mC]*eT*eG*eA*kA*kA) [Compound 1198232]”, the “YAP1 (% UTC)” value under setting [5] worked out at 92 % UTC.
As for “1198777 (kA*eT*kT*dG*d[5mC]*dA*dA*dT*d[5mC]*dT*dG*dT*e[5mC]*eT*kG*kA; antisense) [Compound 1198777]”, the “YAP1 (% UTC)” value under setting [3] worked out at 84 % UTC.
Turning to “1198630 (kA*kA*dT*dT*dG*dT*d[5mC]*dT*d[5mC]*dA*dT*dG*k[5mC]*e[5mC]*kT*eT; antisense) [Compound 1198630]”, the “YAP1 (% UTC)” value under setting [1] was 37 % UTC.
Turning to “1197264 (kA*kT*kT*dG*mC*dA*dA*dT*d[5mC]*dT*dG*dT*d[5mC]*kT*kG*kA) [Compound 1197264]”, the “YAP1 (% UT)” value under setting [4] is listed as 33 % UT.
As for “1198804 (antisense kT*kG*dT*d[5mC]*dT*d[5mC]*dA*dT*dG*d[5mC]*d[5mC]*kT*eT*kA*eT*kA) [Compound 1198804]”, under setting [12], the “YAP1 (% UT)” value came to 22 % UT.
Take “1198817 (antisense kA*kT*dT*dA*dG*dA*dG*dT*dA*dT*dG*kT*eG*kG*e[5mC]*kA) [Compound 1198817]”: the “YAP1 (% UT)” value under setting [12] is recorded as “AksTksTdsAdsGdsAdsGdsTdsAdsTds43 % UT”.
As to “1198279 (k[5mC]*kT*dA*dA*dG*dT*dA*dA*dG*dG*dT*eT*eT*e[5mC]*k[5mC]*k[5mC]; antisense) [Compound 1198279]”, under setting [10], the “YAP1 (% UTC)” value is listed as 43 % UTC.
As to “1198808 (antisense kG*kA*dA*dA*dT*dT*dG*dT*d[5mC]*dT*d[5mC]*kA*eT*kG*e[5mC]*k[5mC]) [Compound 1198808]”, under setting [12], the “YAP1 (% UT)” value is 40 % UT.
As for “1198923 (kT*kT*dG*dG*dA*dA*dG*dA*dT*d[5mC]*dT*kG*dA*kA*dA*k[5mC]; antisense) [Compound 1198923]”, the “YAP1 (% UTC)” value (Table 45, Yap1 mRNA as percent of untreated control, SNU-449 cells, single dose) is 73 % UTC.
Turning to “1198199 (kA*kT*dT*dG*dT*d[5mC]*dT*d[5mC]*dA*dT*dG*e[5mC]*e[5mC]*eT*kT*kA; antisense) [Compound 1198199]”, the “YAP1 (% UTC)” value under setting [5] was 38 % UTC.

Values taken from patent US11214803B2, “Modulators of YAP1 expression” (Ionis Pharmaceuticals, Inc., priority 2019, dated 2022).
